Results published in patent US10604554B2, “Double-acylated GLP-1 derivatives” (Novo Nordisk A/S, priority 2012, dated 2020).
Numbered stars: 1 amine (or outer) side, 2 acyl side, 3 side chain; on linkers, the order of the positions; unused ones are H or OH. Square brackets hold non-standard residues; d marks the D form. Side chains are listed from the residue outwards. Peptide text beside a SMILES is read from it. * marks the point of attachment. Undecanoyl(11-OPh(4-COOH)) = O=C(O)c1ccc(OCCCCCCCCCCC(=O)*)cc1; γGlu = O=C(O)[C@H](CCC(=O)[*:2])N[*:1]; εLys = N[C@@H](CCCCN[*:1])C(=O)[*:2]; Aib = CC(C)(N)C(=O)O

Tests used:
human GLP-1 receptor [1] = biological target: T1, human GLP-1 receptor (Homo sapiens, UniProt P43220); test: In vitro potency (CRE luciferase; whole cells); type: cell-based; set-up: EC50/pM (ratio 1% HSA/0% HSA): unit not given here; conditions: for EC50: BHK cells; for EC50/pM (ratio 1% HSA/0% HSA): ratio of EC50 at 1% HSA to EC50 at 0% HSA
T1 construct: expressed in transfected cells; host or cells: BHK cells, clone FCW467-12A/KZ10-1 (parent line BHKTS13), further transfected with CRE luciferase
T1 sequence (P43220 24-463): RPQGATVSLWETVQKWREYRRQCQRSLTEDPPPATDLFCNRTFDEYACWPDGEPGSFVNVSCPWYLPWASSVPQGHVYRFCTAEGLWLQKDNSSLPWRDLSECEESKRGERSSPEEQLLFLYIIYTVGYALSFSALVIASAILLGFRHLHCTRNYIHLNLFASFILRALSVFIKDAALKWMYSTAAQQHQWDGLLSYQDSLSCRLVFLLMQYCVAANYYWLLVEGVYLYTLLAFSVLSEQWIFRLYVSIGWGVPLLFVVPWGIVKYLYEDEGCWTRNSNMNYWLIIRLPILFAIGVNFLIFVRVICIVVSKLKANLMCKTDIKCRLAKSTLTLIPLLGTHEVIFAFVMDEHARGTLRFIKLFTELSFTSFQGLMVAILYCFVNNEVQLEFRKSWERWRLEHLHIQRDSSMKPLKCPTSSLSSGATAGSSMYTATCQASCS
How it was run: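 Stably transfected BHK cells carrying human GLP-1R and a CRE–firefly luciferase reporter, 5×10^3 cells/well in assay medium, run with 0% or 1% HSA in assay buffer.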

human GLP-1 receptor [2] = biological target: T1, human GLP-1 receptor; test: GLP-1 receptor binding (SPA, displacement of 125I-GLP-1)
How it was run: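 Membranes from a stably transfected hamster cell line, 5-10 ug protein/sample, with WGA SPA beads and [125I]-GLP-1(7-36)NH2 at 0.06 nM final. Incubated 120 min at 30 °C with shaking, then counted.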

[3] = Pharmacokinetic (PK) study in rat; conditions: male, Sprague Dawley, in vivo, iv, 6 nmol/kg
Experimental: The purpose of this Example is to investigate half-life in vivo in rat.
In vivo pharmacokinetic studies in rats were performed with the GLP-1 derivatives of a number of the Example compounds, as described in the following.
Male Sprague Dawley rats of same age with a body weight of approximately 400 g were obtained from Taconic (Denmark) and assigned to the treatments by simple randomisation on body weight, approximately 4 rats per group.
The GLP-1 derivatives (approximately 6 nmol/ml) were dissolved in 50 mM sodium phosphate, 145 mM sodium chloride, 0.05% tween 80, pH 7.4. Intravenous injections (1.0 ml/kg) of the compounds were given with a syringe in the tail vein of conscious rats. Blood was sampled from vena sublingualis for 5 days post dosing. Blood samples (200 μl) were collected in EDTA buffer (8 mM) and then centrifuged at 4° C. and 10000 G for 5 minutes. Plasma samples were kept at −20° C. until analyzed for plasma concentration of the respective GLP-1 compound.
The donor beads were coated with streptavidin, while acceptor beads were conjugated with a monoclonal antibody recognising a mid-/C-terminal epitope of the peptide. Another monoclonal antibody, specific for the N-terminus, was biotinylated. The three reactants were combined with the analyte and formed a two-sited immuno-complex. Illumination of the complex released singlet oxygen atoms from the donor beads, which were channeled into the acceptor beads and triggered chemiluminescence which was measured in an Envision plate reader. The amount of light was proportional to the concentration of the compound.
Plasma concentration-time profiles were analyzed using Phoenix WinNonLin ver. 6.2, Pharsight Inc., Mountain View, Calif., USA), and the half-life (T1/2) calculated using individual plasma concentration-time profiles from each animal.

[4] = In vitro potency (CRE luciferase) EC50 (1% HSA), 1% HSA
[5] = Receptor binding affinity IC50 (high HSA), 2.0% HSA (high albumin)
[6] = Receptor binding affinity IC50 (low HSA), 0.001% HSA (low albumin)

Compound	EC50 (human GLP-1 receptor [1]; [4])	IC50 (human GLP-1 receptor [2]; [5])	half-life [3]	EC50 (human GLP-1 receptor [1]; In vitro potency (CRE luciferase) EC50 (0% HSA), 0% HSA)	EC50/pM (ratio 1% HSA/0% HSA) (human GLP-1 receptor [1])	IC50 (human GLP-1 receptor [2]; [6])
CC[C@H](C)[C@H](NC(=O)[C@H](Cc1ccccc1)NC(=O)[C@H](CCC(=O)O)NC(=O)[C@H](CCCCNC(=O)[C@@H](N)CCCCNC(=O)CNC(=O)[C@H](CO)NC(=O)[C@H](CO)NC(=O)CNC(=O)[C@H](CO)NC(=O)[C@H](CO)NC(=O)CC[C@H](NC(=O)CCCCCCCCCCCOc1ccc(C(=O)O)cc1)C(=O)O)NC(=O)[C@H](C)NC(=O)[C@H](C)NC(=O)[C@H](CCC(N)=O)NC(=O)CNC(=O)[C@H](CCC(=O)O)NC(=O)[C@H](CC(C)C)NC(=O)[C@H](Cc1ccc(O)cc1)NC(=O)[C@H](CO)NC(=O)[C@H](CO)NC(=O)[C@@H](NC(=O)[C@H](CC(=O)O)NC(=O)[C@H](CO)NC(=O)[C@@H](NC(=O)[C@H](Cc1ccccc1)NC(=O)[C@@H](NC(=O)CNC(=O)[C@H](CCC(=O)O)NC(=O)C(C)(C)NC(=O)[C@@H](N)Cc1c[nH]cn1)[C@@H](C)O)[C@@H](C)O)C(C)C)C(=O)N[C@@H](C)C(=O)N[C@@H](Cc1c[nH]c2ccccc12)C(=O)N[C@@H](CC(C)C)C(=O)N[C@H](C(=O)N[C@@H](CCCNC(=N)N)C(=O)NCC(=O)N[C@@H](CCCNC(=N)N)C(=O)N[C@@H](CCCCNC(=O)[C@@H](N)CCCCNC(=O)CNC(=O)[C@H](CO)NC(=O)[C@H](CO)NC(=O)CNC(=O)[C@H](CO)NC(=O)[C@H](CO)NC(=O)CC[C@H](NC(=O)CCCCCCCCCCCOc1ccc(C(=O)O)cc1)C(=O)O)C(=O)O)C(C)C [Example 23]	0.156 nM	102 nM	19 h	–	–	–
CC[C@H](C)[C@H](NC(=O)[C@H](Cc1ccccc1)NC(=O)[C@H](CCC(=O)O)NC(=O)[C@H](CCCCNC(=O)[C@@H](N)CCCCNC(=O)[C@@H](N)CCCCNC(=O)CC[C@H](NC(=O)CC[C@H](NC(=O)CC[C@H](NC(=O)CCCCCCCCCCOc1ccc(C(=O)O)cc1)C(=O)O)C(=O)O)C(=O)O)NC(=O)[C@H](C)NC(=O)[C@H](C)NC(=O)[C@H](CCC(N)=O)NC(=O)CNC(=O)[C@H](CCC(=O)O)NC(=O)[C@H](CC(C)C)NC(=O)[C@H](Cc1ccc(O)cc1)NC(=O)[C@H](CO)NC(=O)[C@H](CO)NC(=O)[C@@H](NC(=O)[C@H](CC(=O)O)NC(=O)[C@H](CO)NC(=O)[C@@H](NC(=O)[C@H](Cc1ccccc1)NC(=O)[C@@H](NC(=O)CNC(=O)[C@H](CCC(=O)O)NC(=O)C(C)(C)NC(=O)[C@@H](N)Cc1c[nH]cn1)[C@@H](C)O)[C@@H](C)O)C(C)C)C(=O)N[C@@H](C)C(=O)N[C@@H](Cc1c[nH]c2ccccc12)C(=O)N[C@@H](CC(C)C)C(=O)N[C@H](C(=O)N[C@@H](CCCNC(=N)N)C(=O)NCC(=O)N[C@@H](CCCNC(=N)N)C(=O)N[C@@H](CCCCNC(=O)[C@@H](N)CCCCNC(=O)[C@@H](N)CCCCNC(=O)CC[C@H](NC(=O)CC[C@H](NC(=O)CC[C@H](NC(=O)CCCCCCCCCCOc1ccc(C(=O)O)cc1)C(=O)O)C(=O)O)C(=O)O)C(=O)O)C(C)C [Example 30]	0.093 nM	203 nM	16 h	0.0054 nM	17	0.42 nM
CC[C@H](C)[C@H](NC(=O)[C@H](Cc1ccccc1)NC(=O)[C@H](CCC(=O)O)NC(=O)[C@H](CCCCNC(=O)[C@@H](N)CCCCNC(=O)[C@@H](N)CCCCNC(=O)CC[C@H](NC(=O)CCCCCCCCCCCOc1ccc(C(=O)O)cc1)C(=O)O)NC(=O)[C@H](C)NC(=O)[C@H](C)NC(=O)[C@H](CCC(N)=O)NC(=O)CNC(=O)[C@H](CCC(=O)O)NC(=O)[C@H](CC(C)C)NC(=O)[C@H](Cc1ccc(O)cc1)NC(=O)[C@H](CO)NC(=O)[C@H](CO)NC(=O)[C@@H](NC(=O)[C@H](CC(=O)O)NC(=O)[C@H](CO)NC(=O)[C@@H](NC(=O)[C@H](Cc1ccccc1)NC(=O)[C@@H](NC(=O)CNC(=O)[C@H](CCC(=O)O)NC(=O)C(C)(C)NC(=O)[C@@H](N)Cc1c[nH]cn1)[C@@H](C)O)[C@@H](C)O)C(C)C)C(=O)N[C@@H](C)C(=O)N[C@@H](Cc1c[nH]cn1)C(=O)N[C@@H](CC(C)C)C(=O)N[C@H](C(=O)N[C@@H](CCC(N)=O)C(=O)NCC(=O)N[C@@H](CCCNC(=N)N)C(=O)N[C@@H](CCCCNC(=O)[C@@H](N)CCCCNC(=O)[C@@H](N)CCCCNC(=O)CC[C@H](NC(=O)CCCCCCCCCCCOc1ccc(C(=O)O)cc1)C(=O)O)C(=O)O)C(C)C [Example 4, N^ε26-[(2S)-2-amino-6-[[(2S)-2-amino-6-[[(4S)-4-carboxy-4-[12-(4-carboxyphenoxy)dodecanoylamino]butanoyl]amino]hexanoyl]amino]hexanoyl], N^ε37-[(2S)-2-amino-6-[[(2S)-2-amino-6-[[(4S)-4-carboxy-4-[12-(4-carboxyphenoxy)dodecanoylamino]butanoyl]amino]hexanoyl]amino]hexanoyl]-[Aib^8,His^31,Gln^34,Lys^37]-GLP-1-(7-37)-peptide]	1.61 nM	172 nM	17 h	–	307	0.48 nM
CC[C@H](C)[C@H](NC(=O)[C@H](Cc1ccccc1)NC(=O)[C@H](CCC(=O)O)NC(=O)[C@H](CCCCNC(=O)[C@@H](N)CCCCNC(=O)CC[C@H](NC(=O)CC[C@H](NC(=O)CCCCCCCCCCOc1ccc(C(=O)O)cc1)C(=O)O)C(=O)O)NC(=O)[C@H](C)NC(=O)[C@H](C)NC(=O)[C@H](CCC(N)=O)NC(=O)[C@H](CCC(=O)O)NC(=O)[C@H](CCC(=O)O)NC(=O)[C@H](CC(C)C)NC(=O)[C@H](Cc1ccc(O)cc1)NC(=O)[C@H](CO)NC(=O)[C@H](CO)NC(=O)[C@@H](NC(=O)[C@H](CC(=O)O)NC(=O)[C@H](CO)NC(=O)[C@@H](NC(=O)[C@H](Cc1ccccc1)NC(=O)[C@@H](NC(=O)CNC(=O)[C@H](CCC(=O)O)NC(=O)C(C)(C)NC(=O)[C@@H](N)Cc1c[nH]cn1)[C@@H](C)O)[C@@H](C)O)C(C)C)C(=O)N[C@@H](CCC(=O)O)C(=O)N[C@@H](Cc1c[nH]c2ccccc12)C(=O)N[C@@H](CC(C)C)C(=O)N[C@H](C(=O)N[C@@H](CCCNC(=N)N)C(=O)NCC(=O)N[C@@H](CCCNC(=N)N)C(=O)N[C@@H](CCCCNC(=O)[C@@H](N)CCCCNC(=O)CC[C@H](NC(=O)CC[C@H](NC(=O)CCCCCCCCCCOc1ccc(C(=O)O)cc1)C(=O)O)C(=O)O)C(=O)N[C@@H](CCC(=O)O)C(=O)O)C(C)C [Example 42, N^ε26-[(2S)-2-amino-6-[[(4S)-4-carboxy-4-[[(4S)-4-carboxy-4-[11-(4-carboxyphenoxy)undecanoylamino]butanoyl]amino]butanoyl]amino]hexanoyl], N^ε37-[(2S)-2-amino-6-[[(4S)-4-carboxy-4-[[(4S)-4-carboxy-4-[11-(4-carboxyphenoxy)undecanoylamino]butanoyl]amino]butanoyl]amino]hexanoyl]-[Aib^8,Glu^22,Glu^30,Arg^34, Lys^37]-GLP-1-(7-37)-peptidyl-Glu] (H-H[Aib]EGTFTSDVSSYLEEQAAK([εLys-γGlu-γGlu-Undecanoyl(11-OPh(4-COOH))])EFIEWLVRGRK([εLys-γGlu-γGlu-Undecanoyl(11-OPh(4-COOH))])E-OH; N-terminus and C-terminus assumed)	–	–	–	–	251	0.02 nM
CC[C@H](C)[C@H](NC(=O)[C@H](Cc1ccccc1)NC(=O)[C@H](CCC(=O)O)NC(=O)[C@H](CCCCNC(=O)[C@@H](N)CCCCNC(=O)[C@H](CO)NC(=O)CNC(=O)[C@H](CO)NC(=O)CC[C@H](NC(=O)CCCCCCCCCCCOc1ccc(C(=O)O)cc1)C(=O)O)NC(=O)[C@H](C)NC(=O)[C@H](C)NC(=O)[C@H](CCC(N)=O)NC(=O)CNC(=O)[C@H](CCC(=O)O)NC(=O)[C@H](CC(C)C)NC(=O)[C@H](Cc1ccc(O)cc1)NC(=O)[C@H](CO)NC(=O)[C@H](CO)NC(=O)[C@@H](NC(=O)[C@H](CC(=O)O)NC(=O)[C@H](CO)NC(=O)[C@@H](NC(=O)[C@H](Cc1ccccc1)NC(=O)[C@@H](NC(=O)CNC(=O)[C@H](CCC(=O)O)NC(=O)C(C)(C)NC(=O)CCc1c[nH]cn1)[C@@H](C)O)[C@@H](C)O)C(C)C)C(=O)N[C@@H](C)C(=O)N[C@@H](Cc1c[nH]c2ccccc12)C(=O)N[C@@H](CC(C)C)C(=O)N[C@H](C(=O)N[C@@H](CCCNC(=N)N)C(=O)NCC(=O)N[C@@H](CCCNC(=N)N)C(=O)N[C@@H](CCCCNC(=O)[C@@H](N)CCCCNC(=O)[C@H](CO)NC(=O)CNC(=O)[C@H](CO)NC(=O)CC[C@H](NC(=O)CCCCCCCCCCCOc1ccc(C(=O)O)cc1)C(=O)O)C(=O)O)C(C)C [Example 25]	0.124 nM	274 nM	–	–	–	–
